Experiments:
[1] = molecular target: T1, hT1R2/hT1R3 sweet receptor expressed in an HEK293 cell line (Homo sapiens, UniProt Q7RTX0+Q8TE23); assay: In vitro hT1R2/hT1R3 sweet taste receptor activation assay (FLIPR, dose response); assay type: cell-based; conditions: read-out: EC50 for activation of a hT1R2/hT1R3 sweet receptor
T1 construct: expressed in transfected cells; host or cells: HEK293 derivative, clone S-9
T1 sequence (Q8TE23 20-839): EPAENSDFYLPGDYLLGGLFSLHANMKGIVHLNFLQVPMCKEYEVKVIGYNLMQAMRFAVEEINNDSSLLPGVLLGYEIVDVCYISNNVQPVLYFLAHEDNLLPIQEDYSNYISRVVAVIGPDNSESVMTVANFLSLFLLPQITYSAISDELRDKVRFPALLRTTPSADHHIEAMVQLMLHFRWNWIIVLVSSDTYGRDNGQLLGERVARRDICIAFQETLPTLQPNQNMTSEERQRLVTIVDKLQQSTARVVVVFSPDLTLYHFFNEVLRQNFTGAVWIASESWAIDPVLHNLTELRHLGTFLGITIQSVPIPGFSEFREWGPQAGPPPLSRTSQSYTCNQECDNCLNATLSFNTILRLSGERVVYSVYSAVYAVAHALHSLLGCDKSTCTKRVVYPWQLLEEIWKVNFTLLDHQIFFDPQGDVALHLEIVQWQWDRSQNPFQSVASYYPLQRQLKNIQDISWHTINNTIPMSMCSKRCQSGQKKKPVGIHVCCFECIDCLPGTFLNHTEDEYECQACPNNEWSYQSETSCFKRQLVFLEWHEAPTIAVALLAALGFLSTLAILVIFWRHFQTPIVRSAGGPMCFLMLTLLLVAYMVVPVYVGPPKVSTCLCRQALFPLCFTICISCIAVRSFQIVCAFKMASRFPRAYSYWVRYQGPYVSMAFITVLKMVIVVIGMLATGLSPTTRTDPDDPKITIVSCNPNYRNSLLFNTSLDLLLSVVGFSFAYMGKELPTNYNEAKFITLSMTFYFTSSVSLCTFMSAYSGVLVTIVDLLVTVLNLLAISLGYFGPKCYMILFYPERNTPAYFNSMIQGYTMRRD
T1 sequence (Q7RTX0 21-852): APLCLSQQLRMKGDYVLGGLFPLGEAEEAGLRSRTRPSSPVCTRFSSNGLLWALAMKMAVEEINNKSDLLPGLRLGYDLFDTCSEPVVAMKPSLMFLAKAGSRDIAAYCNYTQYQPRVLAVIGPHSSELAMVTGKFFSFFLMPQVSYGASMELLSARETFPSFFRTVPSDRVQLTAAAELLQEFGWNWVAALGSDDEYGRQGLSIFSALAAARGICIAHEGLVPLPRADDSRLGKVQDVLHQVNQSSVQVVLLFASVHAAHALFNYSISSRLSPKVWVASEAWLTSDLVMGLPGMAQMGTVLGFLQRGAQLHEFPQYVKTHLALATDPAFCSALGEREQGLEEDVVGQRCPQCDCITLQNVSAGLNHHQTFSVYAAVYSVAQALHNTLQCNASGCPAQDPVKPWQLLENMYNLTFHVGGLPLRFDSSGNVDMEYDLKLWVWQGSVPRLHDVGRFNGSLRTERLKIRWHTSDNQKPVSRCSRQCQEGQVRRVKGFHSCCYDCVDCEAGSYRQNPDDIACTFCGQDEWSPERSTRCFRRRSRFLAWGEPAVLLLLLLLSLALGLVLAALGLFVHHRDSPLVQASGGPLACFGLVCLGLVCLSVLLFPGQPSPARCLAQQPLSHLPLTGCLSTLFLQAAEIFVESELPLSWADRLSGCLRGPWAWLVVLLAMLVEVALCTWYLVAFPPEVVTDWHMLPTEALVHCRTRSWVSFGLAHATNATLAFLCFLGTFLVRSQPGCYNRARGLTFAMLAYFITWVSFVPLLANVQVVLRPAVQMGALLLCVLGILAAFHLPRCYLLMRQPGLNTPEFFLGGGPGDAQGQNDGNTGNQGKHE
Text: An HEK293 cell line derivative (see Chandrashekar, J., Mueller, K. L., Hoon, M. A., Adler, E., Feng, L., Guo, W., Zuker, C. S., Ryba, N. J.,. Cel,l 2000, 100, 703-711.) that stably expresses Gα15 and hT1R2/hT1R3 (see Li, X., Staszewski, L., Xu, H., Durick, K., Zoller, M., Adler, E. Proc Natl Acad Sci USA 2002, 99, 4692-4696, and PCT Publication No. WO 03/001876) was used to identify compounds with sweet taste enhancing properties. These references are hereby incorporated herein by reference for their methods of preparing and maintaing the cell lines discussed below, and for their methods for screeing compounds that inhibit the biological receptors.
Compounds covered in this document were initially selected based on their activity on the hT1R2/hT1R3—HEK293-Gα15 cell line (Li, et al. vide supra). Activity was determined using an automated fluorometric imaging assay on a FLIPR instrument (Fluorometric Intensity Plate Reader, Molecular Devices, Sunnyvale, Calif.) (designated FLIPR assay). Cells from one clone (designated S-9 cells) were seeded into 384-well plates (at approximately 50,000 cells per well) in a medium containing DMEM Low Glucose (Invitrogen, Carlsbad, Calif.), 10% dialyzed fetal bovine serum (Invitrogen, Carlsbad, Calif.), 100 Units/ml Penicillin G, and 100 μg/ml Streptomycin (Invitrogen, Carlsbad, Calif.) (Li, et al. vide supra) see also World Patent No. WO 03/001876 A2). S-9 cells were grown for 24 hours at 37° C. S-9 cells were then loaded with the calcium dye Fluo-3AM (Molecular Probes, Eugene, Oreg.), 4 μM in a phosphate buffered saline (D-PBS) (Invitrogen, Carlsbad, Calif.), for 1 hour at room temperature. After replacement with 25 μl D-PBS, stimulation was performed in the FLIPR instrument and at room temperature by the addition of 25 μl D-PBS supplemented with different stimuli at concentrations corresponding to twice the desired final level. Receptor activity was quantified by determining the maximal fluorescence increases (using a 480 nm excitation and 535 nm emission) after normalization to basal fluorescence intensity measured before stimulation.
For dose-responses analysis, stimuli were presented in duplicates at 10 different concentrations ranging from 60 nM to 30 μM. Activities were normalized to the response obtained with 400 mM D-fructose, a concentration that elicits maximum receptor response. EC50s were determined using a non-linear regression algorithm (using a Senomyx, Inc. software), where the Hill slope, bottom asymptotes and top asymptotes were allow to vary. Identical results were obtained when analyzing the dose-response data using commercially available software for non-linear regression analysis such as GraphPad PRISM (San Diego, Calif.).

melting point	EC50 [1]	Compound
89 to 90 °C	230 nM	CC(C)Oc1ccc(NC(=S)NCc2ccoc2)cc1 [Example 4, 1-(furan-3-ylmethyl)-3-(4-isopropoxyphenyl)thiourea]
104 to 105 °C	2980 nM	COc1ccc(CNc2ccccc2C)cc1O [Example 12, 5-((o-toluidino)methyl)-2-methoxyphenol]
80.5 to 81.5 °C	150 nM	CC(C)Oc1ccc(NC(=S)NCc2ccsc2)cc1 [Example 3, 1-(4-Isopropoxyphenyl)-3-(thiophen-3-ylmethyl)thiourea]

From patent US20060257543A1, “Molecules comprising linked organic moieties as flavor modifiers for comestible compositions” (priority 2005, published 2006)
